Assay results: PubChem BioAssay AID1963841 (Molecular Pharmacology Branch, DTP, NCI, 2024)

Tested on: 439559-082-T-J2-PDC spheroid viability
Test: Anticancer human tumor 439559-082-T-J2-PDC patient-derived colon adenocarcinoma cell line growth inhibition [POLQ]
Details: spheroids with HUVEC and MSC; for IC50: curve of first compound; for viability, T/C: stronger effect = lower value
Method in brief: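 Patient-derived tumour cells were co-cultured with HUVEC and mesenchymal stem cells as multicellular spheroids at 37 °C. They were treated with POLQ inhibitors (novobiocin, ART-558, RP6685) alone or combined with other agents. Top concentrations were at or near clinical Cmax (otherwise 10 microM; SN-38 at 1 microM), decreasing in half-log steps.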

[1] = second compound 0.0316 µM, first compound 0.0316 µM
[2] = second compound 0.0316 µM, first compound 0.1 µM
[3] = second compound 0.0316 µM, first compound 0.316 µM
[4] = second compound 0.0316 µM, first compound 1 µM
[5] = second compound 0.0316 µM, first compound 3.16 µM
[6] = second compound 0.0316 µM, first compound 10 µM
[7] = second compound 0.1 µM, first compound 0.0316 µM
[8] = second compound 0.1 µM, first compound 0.1 µM
[9] = second compound 0.1 µM, first compound 0.316 µM
[10] = second compound 0.1 µM, first compound 1 µM
[11] = second compound 0.1 µM, first compound 3.16 µM
[12] = second compound 0.1 µM, first compound 10 µM
[13] = second compound 0.316 µM, first compound 0.0316 µM
[14] = second compound 0.316 µM, first compound 0.1 µM
[15] = second compound 0.316 µM, first compound 0.316 µM
[16] = second compound 0.316 µM, first compound 1 µM
[17] = second compound 0.316 µM, first compound 3.16 µM
[18] = second compound 0.316 µM, first compound 10 µM
[19] = second compound 1 µM, first compound 0.0316 µM
[20] = second compound 1 µM, first compound 0.1 µM
[21] = second compound 1 µM, first compound 0.316 µM
[22] = second compound 1 µM, first compound 1 µM
[23] = second compound 1 µM, first compound 3.16 µM
[24] = second compound 1 µM, first compound 10 µM
[25] = second compound 3.16 µM, first compound 0.0316 µM
[26] = second compound 3.16 µM, first compound 0.1 µM
[27] = second compound 3.16 µM, first compound 0.316 µM
[28] = second compound 3.16 µM, first compound 1 µM
[29] = second compound 3.16 µM, first compound 3.16 µM
[30] = second compound 3.16 µM, first compound 10 µM
[31] = second compound 10 µM, first compound 0.0316 µM
[32] = second compound 10 µM, first compound 0.1 µM
[33] = second compound 10 µM, first compound 0.316 µM
[34] = second compound 10 µM, first compound 1 µM
[35] = second compound 10 µM, first compound 3.16 µM
[36] = second compound 10 µM, first compound 10 µM
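Note: spheroids exposed to compounds for seven days before readout.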
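Throughout, for viability, T/C: 100% = DMSO vehicle control viability.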

## CC1COCCN1c1cc(-c2ccnn2C)c2ccnc(-c3ccn[nH]3)c2n1 (centres undefined) + Nc1ccc(C#CCN(C(=O)Cc2ncc(C(F)(F)F)cc2C(F)(F)F)c2ccc(F)cc2)nn1
Second compound 0.0316 µM
  IC50: 0.475 µM
Second compound 0.1 µM
  IC50: > 10 µM
Second compound 0.316 µM
  IC50: > 10 µM
Second compound 1 µM
  IC50: 0.981 µM
Second compound 3.16 µM
  IC50: 0.313 µM
Second compound 10 µM
  IC50: 0.293 µM
[1]
  viability, T/C: 105%
[2]
  viability, T/C: 82.9%
[3]
  viability, T/C: 50.7%
[4]
  viability, T/C: 41.2%
[5]
  viability, T/C: 57%
[6]
  viability, T/C: 49.1%
[7]
  viability, T/C: 105%
[8]
  viability, T/C: 97.1%
[9]
  viability, T/C: 57.5%
[10]
  viability, T/C: 48.9%
[11]
  viability, T/C: 55.8%
[12]
  viability, T/C: 50.3%
[13]
  viability, T/C: 105%
[14]
  viability, T/C: 89.5%
[15]
  viability, T/C: 52.9%
[16]
  viability, T/C: 49.9%
[17]
  viability, T/C: 57.1%
[18]
  viability, T/C: 52.3%
[19]
  viability, T/C: 108%
[20]
  viability, T/C: 84.7%
[21]
  viability, T/C: 60.1%
[22]
  viability, T/C: 42.4%
[23]
  viability, T/C: 56.8%
[24]
  viability, T/C: 46%
[25]
  viability, T/C: 111%
[26]
  viability, T/C: 78.1%
[27]
  viability, T/C: 50.1%
[28]
  viability, T/C: 43.1%
[29]
  viability, T/C: 52.2%
[30]
  viability, T/C: 47.9%
[31]
  viability, T/C: 93.3%
[32]
  viability, T/C: 74.3%
[33]
  viability, T/C: 47.4%
[34]
  viability, T/C: 48.7%
[35]
  viability, T/C: 54.2%
[36]
  viability, T/C: 42.8%

## COc1cc(C2c3cc4c(cc3C(OC3OC5COC(C)OC5C(O)C3O)C3COC(=O)C23)OCO4)cc(OC)c1O (centres undefined) + Nc1ccc(C#CCN(C(=O)Cc2ncc(C(F)(F)F)cc2C(F)(F)F)c2ccc(F)cc2)nn1
Second compound 0.0316 µM
  IC50: > 10 µM
Second compound 0.1 µM
  IC50: > 10 µM
Second compound 0.316 µM
  IC50: > 10 µM
Second compound 1 µM
  IC50: > 10 µM
Second compound 3.16 µM
  IC50: > 10 µM
Second compound 10 µM
  IC50: > 10 µM
[1]
  viability, T/C: 89.8%
[2]
  viability, T/C: 110%
[3]
  viability, T/C: 85.5%
[4]
  viability, T/C: 79.4%
[5]
  viability, T/C: 68%
[6]
  viability, T/C: 71.3%
[7]
  viability, T/C: 86.2%
[8]
  viability, T/C: 94.3%
[9]
  viability, T/C: 84.2%
[10]
  viability, T/C: 85.5%
[11]
  viability, T/C: 86.8%
[12]
  viability, T/C: 81.7%
[13]
  viability, T/C: 99.5%
[14]
  viability, T/C: 106%
[15]
  viability, T/C: 93.2%
[16]
  viability, T/C: 84.1%
[17]
  viability, T/C: 80.6%
[18]
  viability, T/C: 88%
[19]
  viability, T/C: 104%
[20]
  viability, T/C: 93.5%
[21]
  viability, T/C: 92.6%
[22]
  viability, T/C: 91.5%
[23]
  viability, T/C: 88.7%
[24]
  viability, T/C: 70.6%
[25]
  viability, T/C: 101%
[26]
  viability, T/C: 109%
[27]
  viability, T/C: 78.9%
[28]
  viability, T/C: 84.8%
[29]
  viability, T/C: 76%
[30]
  viability, T/C: 75.9%
[31]
  viability, T/C: 97.5%
[32]
  viability, T/C: 84.4%
[33]
  viability, T/C: 77.6%
[34]
  viability, T/C: 86.2%
[35]
  viability, T/C: 80%
[36]
  viability, T/C: 70%
